Test results as given in patent US20220117958A1, “COMPOSITIONS AND METHODS FOR INHIBITING ACSS2” (THE TRUSTEES OF THE UNIVERSITY OF PENNSYLVANIA, priority 2018, published 2022).
Converted amounts (≈) assume the structure as drawn. “And” between values parts separate entries of the source, which are not always exact repeats. Equal entries are not always repeated. Where two headings read alike, the source gives them in different places. Marks after values point to notes of the source that are not given here.

Experiments:
[1] = Protein binding via Rapid Equilibrium Dialysis - plasma; format: in vitro ADME; conditions: Rat (SD) plasma, 2 μM
Description: (§1) Table 20 provides results of in vitro and in vivo pharmacokinetics performed for each of the represented compounds.

[2] = In vivo PK, IV dose, Terminal - brain (brain availability); design: species or system Rat (SD); conditions: for Brain concentration, mean / Brain concentration, individual animal: IV 1 mg/kg; for Brain concentration, individual animal: Rat
Description: Table 3 and FIG. 5 depict the brain availability of ADG I-204, ADG I-205, ADG I-206, and ADG I-207 after IV administration of 1 mg/kg dose.

[3] = system: H3K9ac; experiment: Western blot, differentiated CAD cell lysates, H3K9ac levels; format: cell-based; conditions: differentiated CAD cells, DMSO = 100.00%
Description: as §1

[4] = Microsomal stability assay (half-life), human; format: in vitro ADME; conditions: Human microsomes, read-out: Microsomal stability T1/2
Description: as §1

[5] = In vivo PK, IV dose, plasma; design: species or system Rat (SD); conditions: for Plasma concentration, mean / Plasma concentration, individual animal: IV 1 mg/kg, listed as ADG I-204, 1 mg/kg
Description: as §1
(§2) Tables 4 and 5 depict the summary of rat plasma sample concentrations after administration of ADG I-204. FIG. 6 provides a summary of rat plasma and brain concentrations.

[6] = In vivo PK, oral gavage, plasma; design: species or system Rat (SD); conditions: PO 5 mg/kg; for Plasma concentration, mean: Rat (SD), BQL = below quantitation limit (1.00 ng/mL); for Plasma concentration, individual animal: Rat, BQL limit 1.00 ng/mL
Description: as §1, §2

[7] = Microsomal stability assay (half-life), rat; format: in vitro ADME; conditions: Rat (SD) microsomes, read-out: Microsomal stability T1/2
Description: as §1

[8] = Microsomal stability assay (half-life), mouse; format: in vitro ADME; conditions: Mouse (CD1) microsomes, read-out: Microsomal stability T1/2
Description: as §1

[9] = Turbidity-based aqueous solubility; format: physicochemical; conditions: aqueous solution (composition not given), kinetic from dmso stock, read-out: highest soluble concentration
Description: as §1

Protein binding, plasma: % Protein free [1]: 0.1994 % Protein free
Brain concentration, mean ([2]; Rat (SD), 4 hr, BQL limit 10.0 ng/g (204, 206), 20.0 ng/g (205, 207)): BQL
Brain concentration, mean ([2]; Rat (SD), 8 hr, BQL limit 10.0 ng/g (204, 206), 20.0 ng/g (205, 207)): BQL
Brain concentration, mean ([2]; Rat (SD), 24 hr, BQL limit 10.0 ng/g (204, 206), 20.0 ng/g (205, 207)): BQL
Brain concentration, individual animal ([2]; 0.0830 hr, third animal received only 70% of the test article, listed as ADG I-204, 1 mg/kg): 637 ng/g and 583 ng/g and 242*** ng/g
Brain concentration, individual animal ([2]; 1.00 hr, listed as ADG I-204, 1 mg/kg): 119 ng/g and 60.3 ng/g and 149 ng/g
Brain concentration, individual animal ([2]; 4.00 hr, BQL limit 10.0 ng/g (204, 206), 20.0 ng/g (205, 207)): BQL
Brain concentration, individual animal ([2]; 8.00 hr, BQL limit 10.0 ng/g (204, 206), 20.0 ng/g (205, 207)): BQL
Brain concentration, individual animal ([2]; 24.0 hr, BQL limit 10.0 ng/g (204, 206), 20.0 ng/g (205, 207)): BQL
concentration at 0.083 h ([2]; SD, rat, brain, iv, 1 mg/kg, Rat (SD), 0.083 hr): 487 ng/g
concentration at 1 h ([2]; SD, rat, brain, iv, 1 mg/kg, Rat (SD), 1 hr, read-out: Brain concentration, mean): 109 ng/g
half-life at 2 μM [4]: 1.16 h
Plasma concentration, mean ([5]; Rat (SD), 4 hr, terminal): 4 ng/mL
Plasma concentration, mean ([5]; Rat (SD), 8 hr, terminal): 4 ng/mL
Plasma concentration, mean ([5]; Rat (SD), 24 hr, terminal, BQL limit 1.00 ng/mL (ADG I-205: 2.00 ng/mL)): 2 ng/mL
Plasma concentration, individual animal ([5]; Rat, 0.0830 hr, terminal, third animal received only 70% of the test article): 2340 ng/mL and 1170*** ng/mL
Plasma concentration, individual animal ([5]; Rat, 0.500 hr, not terminal (animals 4, 5 and 6)): 4190** ng/mL and 357 ng/mL and 634 ng/mL
Plasma concentration, individual animal ([5]; Rat, 1.00 hr, terminal): 278 ng/mL and 103 ng/mL and 279 ng/mL
Plasma concentration, individual animal ([5]; Rat, 4.00 hr, terminal, BQL limit 1.00 ng/mL (ADG I-205: 2.00 ng/mL)): 4.35 ng/mL
Plasma concentration, individual animal ([5]; Rat, 8.00 hr, terminal, BQL limit 1.00 ng/mL (ADG I-205: 2.00 ng/mL)): 2.97 ng/mL and 5.93 ng/mL
Plasma concentration, individual animal ([5]; Rat, 24.0 hr, terminal, BQL limit 1.00 ng/mL (ADG I-205: 2.00 ng/mL)): 1.09 ng/mL and BQL
concentration at 0.083 h ([5]; SD, rat, plasma, iv, 1 mg/kg, Rat (SD), 0.083 hr, terminal, read-out: Plasma concentration, mean): 1910 ng/mL
concentration at 0.5 h ([5]; SD, rat, plasma, iv, 1 mg/kg, Rat (SD), 0.500 hr, not a terminal time point (animals 4, 5 and 6)): 1730 ng/mL
concentration at 1 h ([5]; SD, rat, plasma, iv, 1 mg/kg, Rat (SD), 1 hr, terminal, read-out: Plasma concentration, mean): 220 ng/mL
concentration at 4 h ([5]; SD, rat, plasma, iv, 1 mg/kg, Rat (SD), 4 hr, terminal, read-out: Plasma concentration, mean): 4.49 ng/mL
concentration at 8 h ([5]; SD, rat, plasma, iv, 1 mg/kg, Rat (SD), 8 hr, terminal, read-out: Plasma concentration, mean): 4.27 ng/mL
concentration at 24 h ([5]; SD, rat, plasma, iv, 1 mg/kg, Rat (SD), 24 hr, terminal, BQL limit 1.00 ng/mL (ADG I-205: 2.00 ng/mL), read-out: Plasma concentration, mean): 1.52 ng/mL
concentration at 0.083 h ([5]; SD, rat, plasma, iv, 1 mg/kg, Rat, 0.0830 hr, terminal, third animal received only 70% of the test article, read-out: Plasma concentration, individual animal): 2220 ng/mL
concentration at 4 h ([5]; SD, rat, plasma, iv, 1 mg/kg, Rat, 4.00 hr, terminal, BQL limit 1.00 ng/mL (ADG I-205: 2.00 ng/mL), read-out: Plasma concentration, individual animal): 8.63 ng/mL
concentration at 8 h ([5]; SD, rat, plasma, iv, 1 mg/kg, Rat, 8.00 hr, terminal, BQL limit 1.00 ng/mL (ADG I-205: 2.00 ng/mL), read-out: Plasma concentration, individual animal): 3.92 ng/mL
concentration at 24 h ([5]; SD, rat, plasma, iv, 1 mg/kg, Rat, 24.0 hr, terminal, BQL limit 1.00 ng/mL (ADG I-205: 2.00 ng/mL), read-out: Plasma concentration, individual animal): 1.95 ng/mL
Plasma concentration, mean ([6]; 0.25 hr): BQL
Plasma concentration, mean ([6]; 0.5 hr): BQL
Plasma concentration, mean ([6]; 1 hr): BQL
Plasma concentration, mean ([6]; 4 hr): BQL
Plasma concentration, mean ([6]; 8 hr): BQL
Plasma concentration, mean ([6]; 24 hr): BQL
Plasma concentration, individual animal ([6]; 0.250 hr): BQL
Plasma concentration, individual animal ([6]; 0.500 hr): BQL
Plasma concentration, individual animal ([6]; 1.00 hr): BQL
Plasma concentration, individual animal ([6]; 4.00 hr): BQL
Plasma concentration, individual animal ([6]; 8.00 hr): BQL
Plasma concentration, individual animal ([6]; 24.0 hr): BQL
half-life at 2 μM [7]: 3.92 h
half-life at 2 μM [8]: 5.02 h
solubility [9]: 2 µM (≈ 0.845 µg/mL)
SMILES: CCCCCNC(=O)Nc1ccc2nc(-c3cccs3)c(-c3cccs3)nc2c1 [ADG-204]
H3K9ac levels normalized to H3 and DMSO control ([3]; 1 uM): 22.30%
H3K9ac levels normalized to H3 and DMSO control ([3]; 5 uM): 13.48%
H3K9ac levels normalized to H3 and DMSO control ([3]; 10 uM): 8.32%
H3K9ac levels normalized to H3 and DMSO control ([3]; 20 uM): 17.03%
H3K9ac levels normalized to H3 and DMSO control ([3]; 50 uM): 9.64%
H3K9ac levels normalized to H3 and DMSO control ([3]; 100 uM): 24.00%
